From ChEMBL document CHEMBL1143360, “Synthesis and biological evaluation of curcuminoid pyrazoles as new therapeutic agents in inflammatory bowel disease: effect on matrix metalloproteinases” (Bioorg Med Chem, 2009) come the findings set out here.

The source made the active and inactive calls. No cut-off for these calls is given here.

Experiment [1] deals with T1, Matrix metalloproteinase-9 (Homo sapiens, UniProt P14780). Nature of the experiment: Reduction of MMP9 activity in TNF-alpha/IL1-beta-stimulated human Caco-2 cells at 50 uM treated 1 hr before stimulation by zymography. It is filed as cell-based.
For experiment [2], the target named is T1, Matrix metalloproteinase-9. Description: Reduction of MMP9 activity in TNF-alpha/IL1-beta-stimulated human Caco-2 cells treated 1 hr before stimulation by zymography. It is filed as cell-based.

T1 sequence (P14780 whole entry): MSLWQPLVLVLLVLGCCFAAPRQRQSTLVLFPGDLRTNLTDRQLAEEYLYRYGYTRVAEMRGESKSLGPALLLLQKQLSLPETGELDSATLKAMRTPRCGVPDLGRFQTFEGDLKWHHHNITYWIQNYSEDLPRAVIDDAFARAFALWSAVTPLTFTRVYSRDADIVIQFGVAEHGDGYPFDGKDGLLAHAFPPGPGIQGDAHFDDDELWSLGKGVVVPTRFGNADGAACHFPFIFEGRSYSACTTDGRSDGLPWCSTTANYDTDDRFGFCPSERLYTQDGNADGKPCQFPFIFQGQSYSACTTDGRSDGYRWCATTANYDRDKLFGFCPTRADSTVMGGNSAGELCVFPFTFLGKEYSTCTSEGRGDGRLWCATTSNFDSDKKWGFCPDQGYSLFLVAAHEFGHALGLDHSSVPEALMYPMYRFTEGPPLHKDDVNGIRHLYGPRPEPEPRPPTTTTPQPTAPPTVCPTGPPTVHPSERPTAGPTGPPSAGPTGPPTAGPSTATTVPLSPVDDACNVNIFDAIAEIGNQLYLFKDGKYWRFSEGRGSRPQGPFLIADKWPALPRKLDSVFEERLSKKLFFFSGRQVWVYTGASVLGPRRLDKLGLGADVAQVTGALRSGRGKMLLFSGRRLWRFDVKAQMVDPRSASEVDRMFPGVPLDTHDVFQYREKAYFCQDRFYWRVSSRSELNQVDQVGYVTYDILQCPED

Turning to `COc1cc(/C=C/c2n[nH]c(C)c2C)ccc1O`, the outcome in experiment [1] was Active. Further, in experiment [2], half-maximal inhibition (IC50) was put at 8 µM.

The molecule `COc1cc(/C=C/C(=O)CC(=O)/C=C/c2ccc(O)c(OC)c2)ccc1O` [CURCUMIN] displayed a half-maximal inhibitory concentration (IC50) in experiment [2] of 8.5 µM.

Regarding `COc1cc(/C=C/c2cc(C)[nH]n2)ccc1O`, the result in experiment [1] was Active. In addition, in experiment [2], inhibition was half-maximal at 17.6 µM (IC50).

As for `COc1cc(/C=C/c2cc(/C=C/c3ccc(O)c(OC)c3)[nH]n2)ccc1O` [CURCUMIN PYRAZOLE], the result in experiment [1] was Active. Moreover, half-maximal inhibition in experiment [2] (IC50) was put at 19.4 µM.
